Source: ChEMBL document CHEMBL3044811, “Efficacy of grain protectants against four psocid species on maize, rice and wheat” (2009)
Calls of active or inactive are those of the source. No cut-off for these calls is given here.

What was measured:
[1] = tested on: Lepinotus reticulatus; test: Insecticidal activity against Lepinotus reticulatus in compound pre-treated maize grains assessed as mortality at 8 ppm after 7 days (reference value: 34.4 +/-11.4%); type: functional
[2] = tested on: Liposcelis entomophila; test: Insecticidal activity against Liposcelis entomophila in compound pre-treated maize grains assessed as mortality at 8 ppm after 7 days (reference value: 15.6 +/-6.9%); type: functional
[3] = tested on: Liposcelis paeta; test: Insecticidal activity against Liposcelis paeta in compound pre-treated maize grains assessed as mortality at 8 ppm after 7 days (reference value: 13.3 +/-3.3%); type: functional
[4] = tested on: Lepinotus reticulatus; test: Insecticidal activity against Lepinotus reticulatus in compound pre-treated maize grains assessed as mortality at 8 ppm after 14 days (reference value: 61.1 +/-11.9%); type: functional
[5] = tested on: Liposcelis bostrychophila; test: Insecticidal activity against Liposcelis bostrychophila (booklice) in compound pre-treated maize grains assessed as mortality at 8 ppm after 14 days (reference value: 13.5 +/-5.3%); type: functional
[6] = tested on: Liposcelis paeta; test: Insecticidal activity against Liposcelis paeta in compound pre-treated maize grains assessed as mortality at 8 ppm after 14 days (reference value: 14.1 +/-4.1%); type: functional
[7] = tested on: Lepinotus reticulatus; test: Insecticidal activity against Lepinotus reticulatus in compound pre-treated maize grains assessed as decrease in progeny production at 8 ppm after 30 days; type: functional, organism-based
[8] = tested on: Liposcelis bostrychophila; test: Insecticidal activity against Liposcelis bostrychophila (booklice) in compound pre-treated maize grains assessed as decrease in progeny production at 8 ppm after 30 days; type: functional, organism-based
[9] = tested on: Liposcelis bostrychophila; test: Insecticidal activity against Liposcelis bostrychophila (booklice) in compound pre-treated maize grains assessed as mortality at 8 ppm after 7 days (reference value: 8.9 +/-2.6%); type: functional
[10] = tested on: Liposcelis entomophila; test: Insecticidal activity against Liposcelis entomophila in compound pre-treated maize grains assessed as mortality at 8 ppm after 14 days (reference value: 14.4 +/-4.1%); type: functional
[11] = tested on: Liposcelis entomophila; test: Insecticidal activity against Liposcelis entomophila in compound pre-treated maize grains assessed as decrease in progeny production at 8 ppm after 30 days; type: functional, organism-based

CCN(CC)c1nc(C)cc(OP(=S)(OC)OC)n1 [PIRIMIPHOS METHYL]
mortality at 8 ppm [1]: 100% | mortality at 8 ppm [2]: 100% | mortality at 8 ppm [3]: 97.8% | mortality at 8 ppm [4]: 100% | mortality at 8 ppm [5]: 100% | mortality at 8 ppm [6]: 100% | inhibition [7]: Active | inhibition [8]: Active | mortality at 8 ppm [9]: 100% | mortality at 8 ppm [10]: 100% | inhibition [11]: Active
